Each block holds one compound with its values, some of them ahead of it.
Key:
[1] = Remote loading of taxane derivative precipitates into liposomes; assay type: physicochemical
Method: Liposomes were prepared using the extrusion and purification method described in Example 1. The lipid composition was POPC/cholesterol (3/0.5, mol/mol). The trapping agent consisted of zinc acetate or magnesium acetate at 120 mM. A solution of either unmodify carbazitaxel or 2′succinylcarbazitaxel in DMSO at 20 mg/mL was added to the liposome solution slowly over 30 seconds while vortexing to produce a drug precipitate in the liposome solution. The target drug to phospholipid ratio was 100 g/mole lipid for unmodified carbazitaxel and 100, 150 or 200 g for succinylcarbazitaxel/mol phospholipid. The solutions are heated for 30 min at 45° C. and then cooled on ice. A sample was removed to determine the input drug to lipid ratio and the remaining solution was spun in a centrifuge at 12,000 RPM for 5 minutes to pellet any unloaded drug. The supernatant was further purified from unloaded drug using a Sephadex G25 size exclusion column eluted with 5 mM HEPES, 145 mM NaCl at pH 6.5. The purified liposomes were analyzed for drug and lipid content by HPLC as described in Example 16.
To encapsulate the 2′ morpholine-4-ylethyl amide of succinylcabazitaxel, liposomes were prepared with a lipid composition of HSPC/DSPG/Chol/PEG-DSPE in the ratio 2/0.6/2/0.3 containing 1.0 M (SO4) TEA dextran sulfate. The liposomes were separated form the non-entrapped TEA dextran sulfate by anion exchange and then by dialysis against 5 mM Hepes buffered 10% (wt/wt) sucrose, pH 6.5. 2′ morpholine-4-ylethyl amide of succinylcabazitaxel was dissolved in DMSO at 10 mg/mL.
In a typical preparation, the DMSO 2′ morpholine-4-ylethyl amide of succinylcabazitaxel solution was added dropwise to the liposomes at room temperature while the liposomes suspension was rapidly mixed on a vortex mixer. […] The purified liposomes were analyzed for drug and lipid content by HPLC as described in Example 16. […]

[2] = Remote loading of amphotericin B precipitate into TEA dextran sulfate liposomes; assay type: physicochemical
Method: Liposomes were prepared with a lipid composition of HSPC/DSPG/Chol/PEG-DSPE in the ratio 2/0.6/2/0.3 containing 1.0 M (SO4) TEA dextran sulfate. The liposomes were separated form the non-entrapped TEA dextran sulfate by anion exchange and then by dialysis against 5 mM Hepes buffered 10% (wt/wt) sucrose pH 6.5. The liposomes were exchanged into 0.01 N HCL, 10% sucrose pH 2.0 before drug loading. Amphotericin B was dissolved in DMSO at 10 mg/ml.
In a typical preparation, the DMSO amphotericin B solution was added dropwise to the liposomes at room temperature while the liposomes suspension was rapidly mixed on a vortex mixer. The concentration of the liposomal lipid was 5 umol (phospholipid)/mL and 0.1 mL of the amphotericin B solution was added per mL of liposomes so that the final amphotericin B concentration was about 1.0 mg/ml AmB and the final DMSO concentration was about 10% (V/V). By adjusting the amount of liposomes in the preparation various AmB/PL ratios were tested, e.g., 200, 400, 800 g/mol.
The samples were heated at 65° C. for 15 min. Then cooled on ice for 30 minutes. The preparation was then passed through a PD10 (Sephadex G25) gel filtration column to remove any precipitated amphotericin B that was not incorporated into the liposome. […] The diameter of the drug loaded liposomes was not changed at the 200 and 400 g drug/mole lipid input ratio and were slighted larger circa 10% in the 800 g drug lipid ratio. The purified liposomes were analyzed for drug and lipid content by the HPLC method as described in Example 1.

[3] = Drug precipitate loading followed by light scattering at 600 nm; assay type: physicochemical
Method: Liposomes containing 250 mM ammonium sulfate as trapping agent and 250 mM sodium sulfate as control liposomes which would not remote load drug. The liposomes were prepared and loaded using the procedure described in Example 1 except a disposable polystyrene cuvette was used as the reaction vessel. The scattering of light at 600 nm was measured with a UV/vis spectrophotometer during the loading process.

[4] = Carfilzomib liposome entrapment by remote loading from precipitate (drug and lipid by HPLC after purification); assay type: physicochemical
Method: Ammonium sulfate solution was prepared by dissolving ammonium sulfate solid to a final concentration of 250 mM (500 mequivilents of anion/L) no pH adjustment was made to yield a final pH of 5.6. Sodium sulfate solution (250 mM) was prepared by adding 0.35 g sodium sulfate to 10 mL deionized water.
The liposomes were formed by extrusion. Lipids were dissolved in ethanol at a concentration of 500 mM HSPC (591 mg/mL total lipid) at 65° C. and the 9 volumes of the trapping agent solution heated to 65° C. was added to the ethanol/lipid solution also at 65° C. The mixture was vortexed and transferred to a 10 mL thermostatically controlled (65° C.) Lipex Extruder. The liposomes were formed by extruding 10 times through polycarbonate membranes having 0.1 um pores. After extrusion the liposomes were cooled on ice. The transmembrane electrochemical gradient was formed by purification of the liposomes by dialysis in dialysis tubing having a molecular weight cut off of 12,000-14,000. […] The conductivity of the liposome solution was measured and was indistinguishable from the dialysis medium ˜40 μS/cm.
The lipid concentration is determined by measuring the cholesterol by HPLC using an Agilent 1100 HPLC with and Agilent Zorbax 5 um, […], Eclipse XDB-C8 column and a mobile phase of A=0.1% TFA, B=0.1% TFA/MeOH with an isocratic elution of 99% B. The flow rate is 1.0 mL/min, column temperature is 50° C., 10 μL injection and detection by absorbance at 205 nm. […] The liposome size is measured by dynamic light scattering.
Carfilzomib (Selleck Chemicals) was dissolved in DMSO at a concentration of 10 mg/mL. […] The supernatants were purified on a Sephadex G25 column collected and analyzed by HPLC. […] The mobile phase consists of A=0.1% TFA, B=0.1% TFA/MeOH with a gradient elution starting at 50% B and increasing to 83% B in 13 min with 7 min equilibration back to 50% B. The flow rate is 1.0 mL/min, column temperature is 30 C, 10 μl injection and detection by absorbance at 205 nm. […] The lipid concentration is determined by analysis of the cholesterol by HPLC. […]

[5] = Carfilzomib solubility as a function of DMSO content (optical density at 600 nm); assay type: physicochemical; details: 0.2 mg/mL
Method: Carfilzomib was added from a stock 10 mg/mL solution in DMSO to 1 mL of a citric acid/DMSO mixture so that the composition of DMSO was 2%, 25%, 50%, 75% and 100%. The final drug concentration was 0.2 mg/mL. The solutions were prepared and measured for optical density at 600 nm. The optical density at 600 nm is a good measure of how turbid or how much scattering material (such as drug precipitates) are in a solution, generally, the more precipitates the higher the absorbance. From FIG. 8 is apparent that at DMSO concentrations below 50% vol/vol (25° C.) and 25% vol/vol (65° C.) the drug remains in a precipitated form. Only when the concentration of DMSO is increased does it become effectively solubilized at this concentration of 0.2 mg/mL.

[6] = Reverse gradient-directed drug release from liposomes; assay type: physicochemical
Method: Liposomes were loaded with carfilzomib as described in Example 1 and were purified into deionized water. The sample was divided into two aliquots. To the first aliquot, concentrated Hepes pH 7.4 and NaCl was added so that the final concentration was 5 mM Hepes, 145 mM NaCl (HBS). To the second aliquot, concentrated ammonium sulfate was added so that the final concentration was 250 mM. No obvious physical changes were initially observed. The samples were then heated at 65° C. for 30 min. The samples were transferred to clean eppendorf tubes and centrifuged for 10,000 rpm for 5 min after which the supernatants and precipitates were separated and tested for carfilzomib content by HPLC assay. Released drug precipitated, liposome encapsulated drug remained in the supernatant. The % carfilzomib released was calculated by […]

[7] = elimination in the blood stream, unencapsulated drug; cited from earlier work

SMILES: CO[C@H]1C(=O)[C@]2(C)[C@@H](OC)C[C@H]3OC[C@@]3(OC(C)=O)[C@H]2[C@H](OC(=O)c2ccccc2)[C@]2(O)C[C@H](OC(=O)[C@H](OC(=O)CCC(=O)O)[C@@H](NC(=O)OC(C)(C)C)c3ccccc3)C(C)=C1C2(C)C [2′ succinylcabazitaxel, 2′-succinylcarbazitaxel]
loading efficacy ([1]; POPC/cholesterol liposomes with zinc acetate or magnesium acetate 120 mM, 45 C 30 min): greater than 85%

amphotericin B concentration to which final liposome preparation was readily concentrated ([2]; 5 mM Hepes, 144 mM NaCl, pH 7.4 buffer): 10 mg/mL
diameter of the drug loaded liposomes ([2]; 200 and 400 g drug/mole lipid input ratio): not changed
increase of diameter of the drug loaded liposomes ([2]; 800 g drug lipid ratio): circa 10%
remote loading efficiency ([2]; input 200 g drug/mole lipid): 96%
drug content of purified preparation ([2]; input 400 g drug/mole of lipid): 360 g amphotericin B/mole lipid
encapsulated ([2]; input 400 g drug/mole of lipid): about 90%
drug content of purified preparation ([2]; input 800 g drug/mole lipid): 560 g amphotericin B/mole lipid
encapsulated ([2]; input 800 g drug/mole lipid): about 70%
SMILES: C[C@@H]1[C@H](O)[C@@H](C)/C=C/C=C/C=C/C=C/C=C/C=C/C=C/[C@H](O[C@@H]2O[C@H](C)[C@@H](O)[C@H](N)[C@@H]2O)C[C@@H]2O[C@](O)(C[C@@H](O)C[C@@H](O)[C@H](O)CC[C@@H](O)C[C@@H](O)CC(=O)O[C@H]1C)C[C@H](O)[C@H]2C(=O)O [Amphotericin B]

efficiency of loading ([1]; 100 g carbazitaxel/mol phospholipid, calcium acetate and magnesium acetate liposomes (so in the source)): very low
encapsulation, % of the added drug ([1]; TEA-dextran sulfate liposomes): < 5%
SMILES: CO[C@H]1C(=O)[C@]2(C)[C@@H](OC)C[C@H]3OC[C@@]3(OC(C)=O)[C@H]2[C@H](OC(=O)c2ccccc2)[C@]2(O)C[C@H](OC(=O)[C@H](O)[C@@H](NC(=O)OC(C)(C)C)c3ccccc3)C(C)=C1C2(C)C [cabazitaxel]

time to clarification of the solution during loading ([3]; ammonium sulfate liposomes): ≤ 15 min
clarification of the precipitate during loading ([3]; sodium sulfate liposomes): do not show any clarification
loading capacity of remote loaded liposomes relative to sodium sulfate liposomes ([4]; ammonium sulfate vs sodium sulfate liposomes): > 3 fold
impact of delay between precipitate formation and loading on loading efficiency ([4]; delay up to 12 h): does not have a significant impact
greatest payload ([4]; triethylammonium sulfate gradient (500 mM), input 650 g drug/mol HSPC, 30 min, 10% DMSO): 440±12.6 g drug/mol HSPC
DMSO concentration at which the drug remains in a precipitated form ([5]; 25 C): below 50 % vol/vol
DMSO concentration at which the drug remains in a precipitated form ([5]; 65 C): < 25 % vol/vol
drug released with reverse gradient relative to control with no reverse gradient [6]: 6.5 fold
degradation of released drug (HPLC chromatogram vs starting material) ([6]; after loading and reverse gradient release): no degradation
SMILES: CC(C)C[C@H](NC(=O)[C@H](CCc1ccccc1)NC(=O)CN1CCOCC1)C(=O)N[C@@H](Cc1ccccc1)C(=O)N[C@@H](CC(C)C)C(=O)[C@@]1(C)CO1 [carfilzomib]
t1/2 [7]: < 20 min

Source: patent US12070471B2, “Remote loading of sparingly water-soluble drugs into lipid vesicles” (CELATOR PHARMACEUTICALS, INC., priority 2014, dated 2024)
